The supplement of paper PMC11451515

What was measured:
SEM cells [1] = assay: cell viability relative to DMSO control; higher = less cytotoxic; details: 48 h
Outline: (§1)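 Viability is expressed as a percentage of DMSO wells within each plate, and cell-free wells serve as background. Seeding densities in the 1536-well plates (5 μl) were 500 cells/well for NOMO1 or SEM leukemia cells and 1000 cells/well for P12-Ichikawa. Each line was adapted for at least four passages in each medium. Library compounds in DMSO were pin-dosed at 47 μM to 0.79 nM (11 points, threefold), and CellTiter-Glo One luminescence was read after 48 h at 37°C.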

NOMO1 [2] = assay: AUC of viability dose-response curve (% viability x log10 dose units); higher = less sensitive; details: 48 h
Outline: (§2)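 Leukemia cells adapted to each medium were seeded in 1536-well plates (500 or 1000 cells/well). They were dosed with library compounds in DMSO at 11 threefold doses, 47 μM to 0.79 nM, for 48 h at 37°C. CellTiter-Glo One luminescence was normalised per plate to DMSO and cell-free wells. Area under the curve was integrated by trapezoidal rule over log10 doses on a four-parameter log-logistic fit; curves exceeding full viability were scaled and curves failing quality control removed.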

SEM cells [3] = assay: as above; details: 48 h
Outline: as §2

P12-Ichikawa = assay: as above; details: 48 h
Outline: as §2

NOMO1 [4] = assay: cell viability relative to DMSO control; higher = less cytotoxic; details: RPMI 5 mM glucose + 10% dialyzed FBS, 48 h
Outline: as §1

[5] = HPLM + 10% dialyzed FBS, 0.000781 µM
[6] = HPLM + 10% dialyzed FBS, 0.00234 µM
[7] = HPLM + 10% dialyzed FBS, 0.00702 µM
[8] = HPLM + 10% dialyzed FBS, 0.0211 µM
[9] = HPLM + 10% dialyzed FBS, 0.0632 µM
[10] = HPLM + 10% dialyzed FBS, 0.19 µM
[11] = HPLM + 10% dialyzed FBS, 0.569 µM
[12] = HPLM + 10% dialyzed FBS, 1.71 µM
[13] = HPLM + 10% dialyzed FBS, 5.12 µM
[14] = HPLM + 10% dialyzed FBS, 15.4 µM
[15] = HPLM + 10% dialyzed FBS, 46.1 µM
[16] = RPMI 5 mM glucose + 10% FBS, 0.000781 µM
[17] = RPMI 5 mM glucose + 10% FBS, 0.00234 µM
[18] = RPMI 5 mM glucose + 10% FBS, 0.00702 µM
[19] = RPMI 5 mM glucose + 10% FBS, 0.0211 µM
[20] = RPMI 5 mM glucose + 10% FBS, 0.0632 µM
[21] = RPMI 5 mM glucose + 10% FBS, 0.19 µM
[22] = RPMI 5 mM glucose + 10% FBS, 0.569 µM
[23] = RPMI 5 mM glucose + 10% FBS, 1.71 µM
[24] = RPMI 5 mM glucose + 10% FBS, 5.12 µM
[25] = RPMI 5 mM glucose + 10% FBS, 15.4 µM
[26] = RPMI 5 mM glucose + 10% FBS, 46.1 µM
[27] = RPMI 5 mM glucose + 10% dialyzed FBS

Row | Structure (SMILES) | cell viability (SEM cells [1]; [5]) | cell viability (SEM cells [1]; [6]) | cell viability (SEM cells [1]; [7]) | cell viability (SEM cells [1]; [8]) | cell viability (SEM cells [1]; [9]) | cell viability (SEM cells [1]; [10]) | cell viability (SEM cells [1]; [11]) | cell viability (SEM cells [1]; [12]) | cell viability (SEM cells [1]; [13]) | cell viability (SEM cells [1]; [14]) | cell viability (SEM cells [1]; [15]) | AUC of viability dose-response curve (NOMO1 [2]; HPLM + 10% dialyzed FBS) | AUC of viability dose-response curve (NOMO1 [2]; RPMI 5 mM glucose + 10% FBS) | AUC of viability dose-response curve (NOMO1 [2]; [27]) | AUC of viability dose-response curve (SEM cells [3]; HPLM + 10% dialyzed FBS) | AUC of viability dose-response curve (SEM cells [3]; RPMI 5 mM glucose + 10% FBS) | AUC of viability dose-response curve (SEM cells [3]; [27]) | AUC of viability dose-response curve (P12-Ichikawa; HPLM + 10% dialyzed FBS) | AUC of viability dose-response curve (P12-Ichikawa; RPMI 5 mM glucose + 10% FBS) | AUC of viability dose-response curve (P12-Ichikawa; [27]) | other results
1 | CC(C)(C(=O)NCC(F)(F)C(F)(F)F)C(=O)N[C@@H]1C(=O)Nc2ccccc2-c2ccccc21 | 99.6% | 113% | 120% | 128% | 127% | 119% | 119% | 123% | 126% | 129% | 3.02% | 366 | 337 | 363 | 452 | 435 | 452 |  |  |  | cell viability (SEM cells [1]; [16]): 96.8%; cell viability (SEM cells [1]; [17]): 127%; cell viability (SEM cells [1]; [18]): 120%; cell viability (SEM cells [1]; [19]): 133%; cell viability (SEM cells [1]; [20]): 122%; cell viability (SEM cells [1]; [21]): 128%; cell viability (SEM cells [1]; [22]): 130%; cell viability (SEM cells [1]; [23]): 108%; cell viability (SEM cells [1]; [24]): 124%; cell viability (SEM cells [1]; [25]): 72.7%; cell viability (SEM cells [1]; [26]): 3.52%
2 | CC[C@@]1(O)C(=O)OC\C2=C1\C=C3/N(CC4=CC5=C(C=CC(=C5CN(C)C)O)N=C34)C2=O |  |  |  |  |  |  |  |  |  |  |  | 306 | 312 | 324 | 245 | 226 | 230 | 225 | 217 | 215 | cell viability (SEM cells [1]; [16]): 101%; cell viability (SEM cells [1]; [17]): 107%; cell viability (SEM cells [1]; [18]): 87.2%; cell viability (SEM cells [1]; [19]): 107%; cell viability (SEM cells [1]; [20]): 68.6%; cell viability (SEM cells [1]; [21]): 22.4%; cell viability (SEM cells [1]; [22]): 11.5%; cell viability (SEM cells [1]; [23]): 12.2%; cell viability (SEM cells [1]; [24]): 6.44%; cell viability (SEM cells [1]; [25]): 4.3%; cell viability (SEM cells [1]; [26]): 4.41%
3 | C[C@@H]1[C@H](O)[C@@H](C)C=CC=CCCC=CC=CC=CC=C[C@H](O[C@H]2O[C@@H](C)[C@H](O)[C@@H](N)[C@H]2O)CC2O[C@](O)(C[C@@H](O)[C@H](O)CC[C@@H](O)C[C@@H](O)C[C@@H](O)CC(=O)O[C@H]1C)C[C@H](O)[C@H]2C(=O)O |  |  |  |  |  |  |  |  |  |  |  | 458 | 432 | 432 | 451 | 448 | 447 | 459 | 429 | 456 | 
4 | COc1cc(F)c(C(C)C)cc1-c1ccc(C(F)(F)F)cc1CN1C(=O)O[C@H](c2cc(C(F)(F)F)cc(C(F)(F)F)c2)[C@@H]1C |  |  |  |  |  |  |  |  |  |  |  | 375 | 438 | 444 | 457 | 445 | 441 | 438 | 451 | 459 | 
5 | CC(=O)N[C@H]1[C@H](O[C@@H]2c3ccc(c(Cl)c3)Oc3cc4cc(c3O[C@@H]3O[C@H](CO)[C@@H](O)[C@H](O)[C@H]3NC(=O)CCCCCCCC(C)C)Oc3ccc(cc3Cl)C[C@H]3NC(=O)[C@H](N)c5ccc(O)c(c5)Oc5cc(O)cc(c5)[C@H](NC3=O)C(=O)N[C@H]4C(=O)N[C@H]3C(=O)N[C@@H]2C(=O)N[C@@H](C(=O)O)c2cc(O)cc(O[C@H]4O[C@H](CO)[C@@H](O)[C@H](O)[C@@H]4O)c2-c2cc3ccc2O)O[C@H](CO)[C@@H](O)[C@@H]1O | 96.3% | 106% | 106% | 123% | 127% | 121% | 127% | 140% | 117% | 98.6% | 126% | 469 | 470 | 448 | 456 | 464 | 471 | 463 | 466 | 468 | cell viability (NOMO1 [4]; 0.000781 µM): 123%; cell viability (NOMO1 [4]; 0.00234 µM): 131%; cell viability (NOMO1 [4]; 0.00702 µM): 123%; cell viability (NOMO1 [4]; 0.0211 µM): 144%; cell viability (NOMO1 [4]; 0.0632 µM): 146%; cell viability (NOMO1 [4]; 0.19 µM): 151%; cell viability (NOMO1 [4]; 0.569 µM): 149%; cell viability (NOMO1 [4]; 1.71 µM): 162%; cell viability (NOMO1 [4]; 5.12 µM): 157%; cell viability (NOMO1 [4]; 15.4 µM): 157%; cell viability (NOMO1 [4]; 46.1 µM): 151%
